Like-named read-outs stand apart in the source and are kept apart here.
Legend:
[1] = tested on: AsPMT-complemented pem1Δ/pem2Δ S. cerevisiae; assay: Growth inhibition of complemented yeast; assay type: cell-based, Saccharomyces cerevisiae; conditions: medium with ethanolamine, no choline, day 3, read-out: Mean growth inhibition EC50 ± SEM on complemented yeast, AsPMT
Experimental: (§1) To determine the effect of PMT inhibitors on the growth of PMT- and LacZ-complemented pem1Δpem2Δ S. cerevisiae, the yeast cells were first starved of choline as described above, and the cells were diluted to an OD600 of ~0.6. The PMT-complemented yeast cells were cultured in SG medium (3.4g/L yeast nitrogen base without amino acids, 2% galactose, 30 mg/L histidine, 100 mg/L leucine, 100 mg/L adenine, and 50 mg/L tryptophan) supplemented with 1 mM ethanolamine hydrochloride, while the LacZ-complemented yeast cells were cultured in SG medium supplemented with 1 mM choline chloride. Compounds that depicted cross-inhibitory activity against PMT proteins in vitro were added at various concentrations to the cultures. As a negative control, DMSO (at a final concentration not exceeding 2% [vol/vol]) was added to yeast cultures designated control cultures. The cultures were incubated at 30°C with shaking at 275 rpm for 4 days. On a daily basis during the course of culture, 200-μL portions of culture aliquots were taken, and their OD600s were measured using a microplate reader. In preliminary work, we had observed that the growth of PMT- and LacZ-complemented pem1Δpem2Δ S. cerevisiae plateaued at 3 to 4 days of culture. Therefore, to determine the inhibitory effect of nematode PMT inhibitors on the growth of PMT- and LacZ-complemented pem1Δpem2Δ S. cerevisiae, measurements taken on day 3 were used. The results were presented as percentage of growth rate using the following formula: PGR = growth rate (plus inhibitor)/growth rate (minus inhibitor) × 100 where the percent growth rate (PGR) is the growth rate of inhibitor-treated PMT- or LacZ- complemented Pem1Δpem2Δ S. cerevisiae, considering the growth rate of untreated PMT- or LacZ- complemented Pem1Δpem2Δ S. cerevisiae is 100%; the growth rate = ΔA600^Day 3/ΔA600^Day 0; ΔA600^Day 0 is the absolute value of A600 of PMT- or LacZ- complemented pem1Δ/pem2Δ S. cerevisiae at day 0, which equals the A600 of the culture minus the A600 of the growth medium only; ΔA600^Day 3 is the absolute value of the A600 of PMT- or LacZ complemented pem1Δ/pem2Δ S. cerevisiae at day 3, which equals the A600 of the culture at day 3 minus the A600 of growth medium only; the growth rate (plus inhibitor) is the growth rate of PMT- or -LacZ complemented pem1Δpem2Δ S. cerevisiae in the presence of test compound; and the growth rate (minus inhibitor) is the growth rate of the PMT- or LacZ complemented pem1Δ/pem2Δ S. cerevisiae in the absence of test compound, but with a volume of DMSO equal to that of compound added in the treated culture. The dose-response curves were generated with GraphPad Prism software and IC50 concentrations of the compounds in PMT- and LacZ-complemented yeast cells derived.

[2] = tested on: LacZ-complemented pem1Δ/pem2Δ S. cerevisiae; assay: Growth inhibition of complemented yeast; assay type: cell-based, Saccharomyces cerevisiae; conditions: for EC50: Saccharomyces cerevisiae, 72 h, read-out: Mean growth inhibition EC50 ± SEM on complemented yeast, LacZ; for effect on LacZ-expressing mutant yeast: medium with choline
Experimental: as §1

[3] = tested on: DvPMT1+2-complemented pem1Δ/pem2Δ S. cerevisiae; assay: Growth inhibition of complemented yeast; assay type: cell-based, Saccharomyces cerevisiae; conditions: read-out: Mean growth inhibition EC50 ± SEM on complemented yeast, DvPMT1+2
Experimental: as §1

[4] = tested on: AcPMT1+2-complemented pem1Δ/pem2Δ S. cerevisiae; assay: Growth inhibition of complemented yeast; assay type: cell-based, Saccharomyces cerevisiae; conditions: read-out: Mean growth inhibition EC50 ± SEM on complemented yeast, AcPMT1+2
Experimental: as §1

[5] = tested on: TcPMT-complemented pem1Δ/pem2Δ S. cerevisiae; assay: Growth inhibition of complemented yeast; assay type: cell-based, Saccharomyces cerevisiae; conditions: read-out: Mean growth inhibition EC50 ± SEM on complemented yeast, TcPMT
Experimental: as §1

[6] = tested on: nematode PMTs (HcPMT1, AcPMT1, AsPMT, DvPMT1, OdPMT1, TcPMT); assay: Cross-inhibition of the panel of nematode PMTs (statements on all PMTs together); assay type: biochemical, parasitic nematodes; conditions: for cross-inhibitory activity against all the five PMTs: 40 μM, AcPMT1, AsPMT, DvPMT1, OdPMT1, TcPMT; for SI values based on the IC50^Enzyme values of the PMT proteins tested: all six PMTs of Table 4
Experimental: The chemical compounds were obtained from the National Cancer Institute/Developmental Therapeutics Program Open Chemical Repository. The library consisted of 419 compounds categorized as Natural Products Set IV (see Table S1). Compounds were individually reconstituted in molecular biology grade dimethyl sulfoxide (DMSO) from Sigma-Aldrich to a stock concentration of 10 mM and stored at −20°C until use. Initial screening was conducted using recombinant HcPMT1 protein as enzyme in the methyltransferase assay, with test compounds at a final concentration of 40 μM. The test reaction mixtures consisted of 40 μM test compound, 2.5 μL of SAM-free methyltransferase reaction buffer, 150 μM PE (pH 7.5), 120 μM SAM (pH 7.8), and 20 ng/μL of HcPMT1 protein, and the final volume made up to 50 μL with 1× transferase assay buffer. […] To the positive reaction mixture, instead of test compound, an equivalent volume of DMSO was added. In the negative-control reaction mixture, instead of HcPMT1 and test compound, equivalent volumes of 1× transferase buffer and DMSO, respectively, were added. Detection buffer (100 μL) containing fluorescence substrate was added into each reaction mixture. The reactions were prepared in triplicate wells in 96-well plates. The plates were covered in aluminum foil and incubated at room temperature with agitation for 30 min, followed by reading the fluorescence at 380EX/520EM. The mean percent inhibition (MPI) of the test compound on enzymatic activity was calculated using the following formula: MPI = ΔRFUpositive control − ΔRFUcompounds/ΔRFUpositive control × 100, where the positive control is a reaction without compound but with recombinant PMT protein and a volume of DMSO equivalent to that of compound used in test reactions; the negative control is the reaction without protein and compounds, but with volumes of dialysis buffer and DMSO equivalent to protein and compound added in the test reaction mixtures, respectively; ΔRFUpositive control represents the absolute relative fluorescence units (RFU) for the positive control, which equals RFUpositive control – RFUnegative control; and ΔRFUcompounds represents the absolute RFU value for the sample with the compounds, which equals RFUcompounds – RFUnegative control.
Compounds that had shown more than 50% inhibition on HcPMT1 activity and had no or very low cytotoxicity against HCT-8 cells were further tested for cross-inhibitory effect against the enzymatic activity of other recombinant PMT proteins (AcPMT1, AsPMT, DvPMT1, OdPMT, and TcPMT) at 40 μM. The enzymatic assay was set up as described above, with the respective PMT protein as enzyme. Compounds that depicted cross-inhibitory activity were further tested at various concentrations to derive their half-maximal effective concentrations (EC50) using nonlinear regression analysis by GraphPad Prism software.

[7] = tested on: PMT-complemented mutant yeast; assay: Growth inhibition of complemented yeast (statement on PMT-complemented strains together); assay type: cell-based, Saccharomyces cerevisiae; conditions: various concentrations
Experimental: as §1

[8] = medium with ethanolamine, no choline, day 3

O=c1c(O)cccc2cc(O)c(O)c(O)c12 [NSC35676, purpurogallin]
EC50 ([1]; Saccharomyces cerevisiae, 72 h): 15.1 ± 0.7 µM
EC50 [2]: 6.02 ± 0.25 µM
effect on LacZ-expressing mutant yeast [2]: no or negligible inhibitory effect
EC50 ([3]; Saccharomyces cerevisiae, 72 h): 12.9 ± 1.58 µM
EC50 ([4]; Saccharomyces cerevisiae, 72 h): 17.6 ± 3.72 µM
EC50 ([5]; Saccharomyces cerevisiae, 72 h): 22.9 ± 5 µM
cross-inhibitory activity against all the five PMTs [6]: significant cross-inhibitory activity
SI values based on the IC50^Enzyme values of the PMT proteins tested [6]: > 1
effect on the growth of PMT-complemented mutant yeast [7]: concentration-dependent inhibitory effect

CO[C@@]12[C@H](COC(N)=O)C3=C(C(=O)C(C)=C(N)C3=O)N1C[C@H]1[C@@H]2N1C (stereo partly drawn) [NSC56410]
EC50 ([1]; Saccharomyces cerevisiae, 72 h): 50.7 ± 3.87 µM
EC50 [2]: 50.4 ± 13.2 µM
effect on LacZ-expressing mutant yeast [2]: no or negligible inhibitory effect
EC50 ([3]; Saccharomyces cerevisiae, 72 h): 45.6 ± 7.61 µM
EC50 ([4]; Saccharomyces cerevisiae, 72 h): 40.3 ± 9.42 µM
EC50 ([5]; Saccharomyces cerevisiae, 72 h): 45.1 ± 3.97 µM
cross-inhibitory activity against all the five PMTs [6]: significant cross-inhibitory activity
effect on the growth of PMT-complemented mutant yeast [7]: concentration-dependent inhibitory effect

COc1ccc(-c2c(C)c(C(=O)O)nc(-c3ccc4c(O)c(OC)c5c(c4n3)=NC(C)(C)N=5)c2N)c(O)c1OC [NSC62709]
EC50 [1]: 15.4 ± 2.13 µM
effect on LacZ-expressing mutant yeast [2]: no or negligible inhibitory effect
EC50 [3, 8]: 25.6 ± 5.07 µM
EC50 [4, 8]: 26.9 ± 7.63 µM
EC50 [5, 8]: 29.8 ± 7.61 µM
cross-inhibitory activity against all the five PMTs [6]: significant cross-inhibitory activity
SI values based on the IC50^Enzyme values of the PMT proteins tested [6]: > 1
effect on the growth of PMT-complemented mutant yeast [7]: concentration-dependent inhibitory effect

COc1cc(C)c2c(c1C=O)Oc1c(c(C)c(O)c3c1C(O)OC3=O)OC2=O (stereo not drawn) [NSC87511]
EC50 [1]: 25.9 ± 1.24 µM
effect on LacZ-expressing mutant yeast [2]: no or negligible inhibitory effect
EC50 [3, 8]: 17.1 ± 1.15 µM
EC50 [4, 8]: 26.4 ± 3.45 µM
EC50 [5, 8]: 58.2 ± 7 µM
cross-inhibitory activity against all the five PMTs [6]: significant cross-inhibitory activity
effect on the growth of PMT-complemented mutant yeast [7]: concentration-dependent inhibitory effect

CO[C@H]1/C=C/O[C@@]2(C)Oc3c(C)c(O)c4c(O)c(cc(O)c4c3C2=O)NC(=O)/C(C)=C\C=C\[C@H](C)[C@H](O)[C@@H](C)[C@@H](O)[C@@H](C)[C@H](OC(C)=O)[C@@H]1C [NSC133100]
EC50 [1]: 23.4 ± 1.85 µM
effect on LacZ-expressing mutant yeast [2]: no or negligible inhibitory effect
EC50 [3, 8]: 35.7 ± 3.67 µM
EC50 [4, 8]: 35.1 ± 5.01 µM
EC50 [5, 8]: 60.1 ± 5.85 µM
cross-inhibitory activity against all the five PMTs [6]: significant cross-inhibitory activity
SI values based on the IC50^Enzyme values of the PMT proteins tested [6]: > 1
effect on the growth of PMT-complemented mutant yeast [7]: concentration-dependent inhibitory effect

CO[C@@H]1/C=C\O[C@]2(C)Oc3c(C)c(O)c4c(O)c(c(CN(C)C)c(O)c4c3C2=O)NC(=O)/C(C)=C\C=C[C@@H](C)[C@@H](O)[C@H](C)[C@@H](O)[C@H](C)[C@H](OC(C)=O)[C@@H]1C [NSC145612]
EC50 [1]: 28.9 ± 4.38 µM
effect on LacZ-expressing mutant yeast [2]: no or negligible inhibitory effect
EC50 [3, 8]: 23 ± 2.15 µM
EC50 [4, 8]: 29.3 ± 2.54 µM
EC50 [5, 8]: 27.2 ± 7.7 µM
cross-inhibitory activity against all the five PMTs [6]: significant cross-inhibitory activity
SI values based on the IC50^Enzyme values of the PMT proteins tested [6]: > 1
effect on the growth of PMT-complemented mutant yeast [7]: concentration-dependent inhibitory effect

CO[C@@H]1/C=C/O[C@@]2(C)Oc3c(C)c(O)c4c(c3C2=O)C(=N[C@@H]2CC[C@@H](O)O[C@H]2C)C=C(NC(=O)/C(C)=C\C(=O)[C@@H]2C[C@@H]2[C@H](O)[C@@H](C)[C@@H](O)[C@@H](C)[C@H](OC(C)=O)[C@@H]1C)C4=O [NSC177383]
EC50 [1]: 12.3 ± 1.11 µM
EC50 [3, 8]: 15.4 ± 1.91 µM
EC50 [4, 8]: 21.9 ± 7.31 µM
EC50 [5, 8]: 11.8 ± 1.43 µM
cross-inhibitory activity against all the five PMTs [6]: significant cross-inhibitory activity
SI values based on the IC50^Enzyme values of the PMT proteins tested [6]: > 1

Source: PMC10269165 (Antimicrobial Agents and Chemotherapy, 2023)
